Activity calls are given as the source filed them. No cut-off for these calls is given here. Bounds are passed on as bounds.

Sequence of Transient receptor potential cation channel subfamily M member 7 (Mus musculus) (Q923J1 whole entry): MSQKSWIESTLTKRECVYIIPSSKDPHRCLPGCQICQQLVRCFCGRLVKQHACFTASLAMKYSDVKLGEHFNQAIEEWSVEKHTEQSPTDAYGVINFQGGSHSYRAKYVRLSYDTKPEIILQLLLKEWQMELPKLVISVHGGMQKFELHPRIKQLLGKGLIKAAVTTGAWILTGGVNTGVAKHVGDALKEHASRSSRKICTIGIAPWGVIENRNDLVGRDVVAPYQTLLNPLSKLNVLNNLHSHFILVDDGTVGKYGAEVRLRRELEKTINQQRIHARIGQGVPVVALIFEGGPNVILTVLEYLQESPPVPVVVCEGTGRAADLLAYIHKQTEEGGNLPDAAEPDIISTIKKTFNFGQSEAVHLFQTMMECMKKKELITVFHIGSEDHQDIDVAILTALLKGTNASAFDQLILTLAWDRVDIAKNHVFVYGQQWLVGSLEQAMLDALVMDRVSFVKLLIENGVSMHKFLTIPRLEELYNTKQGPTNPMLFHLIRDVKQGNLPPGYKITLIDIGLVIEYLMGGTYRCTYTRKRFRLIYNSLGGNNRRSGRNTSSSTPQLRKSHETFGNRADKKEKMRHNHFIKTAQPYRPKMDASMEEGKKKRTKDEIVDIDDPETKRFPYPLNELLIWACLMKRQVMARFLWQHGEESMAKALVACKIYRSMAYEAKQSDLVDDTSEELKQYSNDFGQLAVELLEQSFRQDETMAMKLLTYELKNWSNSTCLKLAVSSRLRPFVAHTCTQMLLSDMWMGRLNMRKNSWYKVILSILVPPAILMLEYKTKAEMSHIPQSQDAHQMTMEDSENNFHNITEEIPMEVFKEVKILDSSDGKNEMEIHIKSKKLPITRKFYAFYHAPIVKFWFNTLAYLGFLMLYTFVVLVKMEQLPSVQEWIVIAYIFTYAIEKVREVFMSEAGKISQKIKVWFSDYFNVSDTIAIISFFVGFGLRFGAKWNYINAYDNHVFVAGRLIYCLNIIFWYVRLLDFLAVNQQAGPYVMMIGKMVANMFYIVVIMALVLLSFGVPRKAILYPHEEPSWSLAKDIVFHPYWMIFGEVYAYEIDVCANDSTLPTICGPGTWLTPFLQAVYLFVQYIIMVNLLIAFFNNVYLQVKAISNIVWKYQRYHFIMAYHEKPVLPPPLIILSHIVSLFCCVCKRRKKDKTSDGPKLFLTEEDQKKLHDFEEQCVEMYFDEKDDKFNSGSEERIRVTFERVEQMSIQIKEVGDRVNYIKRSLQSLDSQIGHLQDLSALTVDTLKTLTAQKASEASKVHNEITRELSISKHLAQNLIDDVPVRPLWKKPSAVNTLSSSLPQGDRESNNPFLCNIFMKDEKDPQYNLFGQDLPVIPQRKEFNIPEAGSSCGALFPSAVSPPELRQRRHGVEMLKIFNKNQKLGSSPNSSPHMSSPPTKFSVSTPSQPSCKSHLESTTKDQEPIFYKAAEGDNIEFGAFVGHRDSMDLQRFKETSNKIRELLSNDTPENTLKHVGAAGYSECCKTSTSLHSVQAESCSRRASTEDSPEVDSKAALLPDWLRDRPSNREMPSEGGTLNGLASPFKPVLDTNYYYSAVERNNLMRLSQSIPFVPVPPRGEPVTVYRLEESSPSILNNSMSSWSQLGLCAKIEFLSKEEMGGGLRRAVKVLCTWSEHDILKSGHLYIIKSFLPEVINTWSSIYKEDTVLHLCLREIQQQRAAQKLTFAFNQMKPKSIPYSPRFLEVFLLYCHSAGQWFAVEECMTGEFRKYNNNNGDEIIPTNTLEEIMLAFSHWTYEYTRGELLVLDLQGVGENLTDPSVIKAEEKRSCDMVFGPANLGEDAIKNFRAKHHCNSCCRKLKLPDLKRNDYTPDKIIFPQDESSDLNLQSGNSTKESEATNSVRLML

One test concerns the target Transient receptor potential cation channel subfamily M member 7 (Mus musculus) (UniProt Q923J1). Description: Inhibition of Tet-induced Flag-tagged mouse TRPM7 expressed in HEK293 cells assessed as inhibition of channel-mediated cell death in presence of Mg2+ incubated for 24 to 48 hrs by propidium iodide uptake assay. The test is classed as cell-based. On the set-up: concentration or dose not given beside the values.
Details: not given
In general, inhibition refers to the drop in the measured response relative to a control, in per cent. `COc1cccc2c1C(=O)c1c(O)c3c(c(O)c1C2=O)C[C@@](O)(C(C)=O)C[C@@H]3O[C@H]1C[C@H](N)[C@H](O)[C@H](C)O1`: the inhibition entry was “Dose-dependent effect”.
On the same count and under the same terms, with `COc1cc(/C=C/C(=O)N2CCC=CC2=O)cc(OC)c1OC` the entry was “Dose-dependent effect”.
The same measure, in the same setting: under `Cc1cc(C2CCCCC2)n(O)c(=O)c1` stands “Active”; under `COc1cc2c(c(OC)c1OC)-c1ccc(OC)c(=O)cc1[C@@H](NC(C)=O)CC2`, “Active”.
Still for that read-out and setting: under `Cc1ccc(NS(=O)(=O)c2ccc(-c3csc(C)n3)s2)c(C)c1` stands “Active”.

The test is the same for the next values; noted with them: concentration not given here.
As to `O=C(O)C1Cc2ccccc2CN1` (centres undefined), the inhibition was less than 30%.
On to `O=C1/C(=C\c2ccc(F)cc2)Sc2ccccc21`, for which the inhibition was less than 30%.
Regarding `O=c1oc2cc(O)ccc2c(O)c1Cc1ccc(Cl)c(Cl)c1`, the inhibition is 80%.
With `O=C1NC(=O)/C(=C/c2cccc(C#Cc3ccccc3)c2)S1`, the inhibition was found to be 60%.
`O=C(Nc1ccc(OC(F)(F)F)cc1)Nc1cc(-c2ccccc2)n[nH]1`: the inhibition is less than 30%.
Same read-out and setting: under `CCc1ccc2[nH]c(C(=O)N(C)c3ccc(F)cc3F)cc2c1` stands less than 30%; under `CCOC(=O)c1sc2nc(C)c(/N=N/c3ccccc3)c(C)c2c1N`, less than 30%.
With `O=C(O)CSc1cc(C(F)(F)F)nc2ccccc12`, the inhibition was found to be 30%.
Regarding `CCOC(=O)c1c(C)n(-c2ccccc2)c2ccc(OC(=O)C(c3ccccc3)C3CCCC3)cc12` (centres undefined), the inhibition is 30%.
Turning to `COC(=O)/C(=C/N(C)C)NC(=O)c1ccccc1`, the inhibition was less than 30%.
`CCCCCNC(=S)NNC(=O)OCC`: the inhibition was 60%.
Still for that read-out and setting: with `Oc1cc(C(F)(F)F)nc2ccc(F)cc12` the figure was 80%; with `FC(F)(F)c1cc(Oc2ccc(Cl)cc2)ccc1-c1ncc(-c2cccc(Cl)c2)o1`, 70%; with `COc1ccccc1N1CCN(Cc2c[nH]nc2-c2ccccc2)CC1`, 80%.
Regarding `O=C(NNC(=S)Nc1cc(Cl)ccc1Cl)c1ccccc1Cl`, the inhibition is less than 30%.
On the same count and under the same terms, under `Clc1cc(Cl)c(N/N=C/c2cc(C#Cc3ccccc3)cs2)c(Cl)c1` stands 50%.
Same read-out and setting: under `N#Cc1c(Cl)cccc1Oc1ccc(S(=O)(=O)Nc2ccccc2)cc1` stands 40%.
Regarding `COc1ccc(CCNC(=O)c2sc3ccccc3c2Cl)cc1OC`, the inhibition is less than 30%.
Same read-out and setting: with `O=S(=O)(CS(=O)(=O)Oc1ccc(Cl)cc1Cl)Oc1ccc(Cl)cc1Cl` the figure was less than 30%; with `COc1cccc(NC(=O)Nc2nnc(C3CC3)s2)c1`, less than 30%.
Consider `Fc1ccc(N2CCN(Cc3c[nH]c(-c4ccccc4)n3)CC2)cc1`, for which the inhibition amounted to 70%.
Consider `O=c1c(-c2ccccc2)c(O)c2cccc3c4ccccc4n1c23`, for which the inhibition is 90%.
For `Cc1cccn2cc(-c3ccccc3Cl)nc12`, the inhibition stood at 30%.
Same read-out and setting: with `Cc1cc(S(=O)(=O)Cc2noc(-c3c(C)noc3C)n2)c(C)cc1Cl` the figure was 40%; with `N#Cc1cc(CCCCc2cc(C#N)c3ccccc3c2)cc2ccccc12`, less than 30%.
Consider `COc1ccc(-c2[nH]ncc2CN2CCC(O)(c3ccc(Cl)cc3)CC2)cc1`, for which the inhibition was less than 30%.
The same measure, in the same setting: under `COc1cc(C(=O)Oc2c(Cl)cc(Cl)cc2/C=N\c2cccc(C(F)(F)F)c2)cc(OC)c1OC` stands less than 30%; under `N#CCc1nn(-c2ccccc2)c(/N=C/c2cc(Cl)cc(Cl)c2O)c1C#N`, 60%; under `Cc1ccc(S(=O)(=O)Nc2ccccc2Oc2ccccc2)cc1`, less than 30%.
Still for that read-out and setting: under `Cc1csc(NC(=O)C(F)(F)F)c1C(N)=O` stands 50%; under `Cc1ccc([N+](=O)[O-])c(C(=O)NNC(=S)Nc2cccc(Cl)c2)c1`, 60%; under `Cc1onc(-c2c(Cl)cccc2Cl)c1C(=O)Oc1ccccc1`, less than 30%.
The same measure, in the same setting: with `O=C(Nc1ccc(F)c(Cl)c1)c1ccccc1O` the figure was less than 30%; with `C/C=N/N(c1ccccc1)c1cc(-c2ccc(OC)cc2)c(C#N)c(=O)[nH]1`, 60%; with `CCOC(=O)c1cc2c(NC(=O)c3ccc(Cl)cc3)c(C(=O)OCC)sc2nc1C(F)(F)F`, less than 30%.
Turning to `CCCCCCCCCc1c(O)c2ccccc2[nH]c1=O`, the inhibition was 60%.
Same read-out and setting: under `CCOC(=O)C(C#N)Cc1c(C)c(C)c(C)c(C)c1C` (centres undefined) stands less than 30%; under `[O-][S+](c1ccc(Cl)cc1)c1ccc(-c2ccccn2)s1` (centres undefined), less than 30%; under `CCOC(=O)c1c(C)csc1NC(=O)CSc1ccc(Cl)cc1`, 50%.
On the same count and under the same terms, under `C=CC/N=C1/NC(=O)C(CC(=O)Nc2ccc(Cl)cc2)S1` (centres undefined) stands 50%.
Still for that read-out and setting: under `O=C(O)CNC(=O)c1cccs1` stands less than 30%; under `Cc1cc(Sc2ncnc3cc(-c4ccc(F)cc4)sc23)c(C)cc1Cl`, less than 30%.
With `O=C(Nc1ccc(F)cc1F)c1cc(Cl)cc(Cl)c1O`, the inhibition was less than 30%.
Consider `Fc1ccc(C2CN3C(=N2)C=Cc2ccccc23)cc1` (centres undefined), for which the inhibition was less than 30%.
Take `O=S(=O)(Cc1nc2ccc(Cl)cc2s1)CS(=O)(=O)Nc1nc2ccc(Cl)cc2s1`: the inhibition turned out to be 70%.
For the molecule `COc1ccc(C(=O)Nc2c(-c3cccc(C(F)(F)F)c3)c(C(F)(F)F)nn2C)cc1OC`, the inhibition was less than 30%.
In the case of `CC(=O)C(C#N)c1nc(-c2ccc(Cl)c(C)c2)cs1` (centres undefined), the inhibition came out at 70%.
The same measure, in the same setting: with `Cc1csc(-c2nc(-c3ccc(Cl)cc3)no2)c1Cl` the figure was less than 30%; with `Cc1csc2ncnc(N3CCN(C(=O)Nc4ccc(OC(F)(F)F)cc4)CC3)c12`, 50%.
Take `Cc1ccc(C(=O)Nc2cccnc2Oc2ccc(C(C)(C)C)cc2)cc1C`: the inhibition came out at 60%.
The same measure, in the same setting: with `O=C(Nc1cccc([N+](=O)[O-])c1)c1ccccc1O` the figure was 60%; with `CCCCCCCSc1nnc[nH]1`, 70%; with `FC(F)(F)COc1ccc(-c2nc(-c3ccc(Cl)cc3)cs2)cn1`, 50%.
Same read-out and setting: under `Oc1cc(C(F)(F)F)nc(SCc2ccccc2)n1` stands 80%; under `C#Cc1cccc(NC(=O)c2c(-c3c(Cl)cccc3Cl)noc2C)c1`, less than 30%; under `CC(C)NC(=O)n1nccc1-c1cc(-c2ccccc2)no1`, less than 30%.
As for `Cn1c(CN2C(=O)CSc3ccc(C(F)(F)F)cc32)nnc1SCC(=O)c1ccccc1`, the inhibition is less than 30%.
Same read-out and setting: under `Clc1ccc(CO/N=C/c2nc3ccccc3s2)cc1` stands 40%; under `COC(=O)C(O)(c1ccc(NC(=O)Nc2ccc(Cl)cc2)cc1)C(F)(F)F` (centres undefined), 50%; under `Cc1ccc(NS(=O)(=O)c2ccc(-c3cnc(C)s3)s2)c(C)c1`, 80%.
On the same count and under the same terms, with `C/C=C(\C)C(=O)Nc1nncs1` the figure was less than 30%; with `CCOC(=O)CCc1cc(/N=C/c2cc(Cl)cc(Cl)c2O)c(O)c(/N=C/c2cc(Cl)cc(Cl)c2O)c1`, 50%; with `C/C(=N\Nc1c(C)cccc1Cl)c1ccc(Oc2ncc([N+](=O)[O-])s2)cc1`, less than 30%.
On to `COc1ccc(NC(=O)CSc2nnc(C)n2-c2ccc(OCc3ccccc3)cc2)cc1`, for which the inhibition came out at 50%.
Same read-out and setting: with `CC(C)Cc1ccc(C(C)c2nnc(-c3cccc([N+](=O)[O-])c3)o2)cc1` (centres undefined) the figure was 50%; with `CC(C)(C)c1ccc(OCc2ncc(S(=O)(=O)c3ccccc3)c(N)n2)cc1`, less than 30%; with `Brc1ccc2nc(C34CC5CC(CC(C5)C3)C4)cn2c1`, 60%.
The same measure, in the same setting: under `Cc1nn(Cc2nc(-c3ccc(Cl)cc3)cs2)c(C)c1Br` stands 40%; under `CC(C)N(Cc1ccc(N(C)C)cc1)C(=O)c1sc2ccccc2c1Cl`, 50%; under `CSc1sc(Br)c2c1C(=O)CCC2`, less than 30%.
Same read-out and setting: under `c1ccc2c(c1)Nc1nc3ccccc3nc1N2` stands less than 30%.
For the molecule `OC(CN1CCN(Cc2c(F)cccc2Cl)CC1)Cn1ccc2ccccc21` (centres undefined), the inhibition was found to be 50%.
Same read-out and setting: with `N#C/C(=N\Nc1cccc(C(F)(F)F)c1)C(=O)c1csc(-c2cccnc2)n1` the figure was 60%; with `C/C(=N\NC1=NCCN1Cc1ccccc1)c1ccc(C)cc1`, 70%.
Turning to `CSc1nccc(-c2ccc(S(=O)(=O)n3nc(C)c(Br)c3C)s2)n1`, the inhibition is less than 30%.
Same read-out and setting: with `CC(=O)Nc1cc(C)ccc1C` the figure was less than 30%; with `Cc1csc2ncnc(N3CCN(S(=O)(=O)c4ccc(Cl)cc4)CC3)c12`, 70%; with `O=C1/C(=C\c2cccs2)C(c2ccccc2)Oc2ccccc21` (centres undefined), less than 30%.
Still for that read-out and setting: with `Nc1nc(-c2ccc(-c3ccccc3)cc2)cs1` the figure was 40%.
On the same count and under the same terms, with `O=S(=O)(CCN1CCC(n2cccc2)CC1)c1ccc(F)cc1` the figure was 40%.
In the case of `O=C(NCc1cccs1)c1ccccc1`, the inhibition was less than 30%.
Turning to `CCCCCCCCOc1ccc(S)nn1`, the inhibition is less than 30%.
Same read-out and setting: under `O=c1c(Cc2ccc(Br)cc2)csc2ccccc12` stands less than 30%; under `Cc1onc(-c2c(Cl)cccc2Cl)c1C(=O)OCCOc1ccc(C(F)(F)F)cc1[N+](=O)[O-]`, 60%.
For `CCOC(=O)C(=CNNC(=O)c1cccs1)C(=O)OCC`, the inhibition is 60%.
Consider `CN(/N=C/Cc1nnnn1-c1ccc(Cl)cc1)c1ccccc1`, for which the inhibition was less than 30%.
With `CCOC(=O)c1ccc2c(c1)CC/C(=C\c1cccc(C(F)(F)F)c1)C2=O`, the inhibition is less than 30%.
In the case of `Cc1ccc(-c2n[nH]cc2Sc2ccc(C(F)(F)F)cn2)cc1`, the inhibition is less than 30%.
Same read-out and setting: with `O=C(N/C=C/c1cccs1)Nc1ccc(Cl)cc1` the figure was less than 30%.
The same measure, in the same setting: with `Clc1ccc2c(N3CCCCC3)ccnc2c1` the figure was less than 30%.
As to `FC(F)(F)c1cccc(OCc2ccc(-c3ncns3)cc2)c1`, the inhibition worked out at 50%.
Consider `O=C(Nc1ccccc1)OCCSCc1ccc2nc(C(F)(F)F)ccc2c1`, for which the inhibition amounted to 60%.
Same read-out and setting: under `CC(=O)OC[C@H]1OC(OC(C)(C)C)[C@H](OC(C)=O)[C@@H](OC(C)=O)[C@@H]1OC(C)=O` (some centres undefined) stands 40%.
Same read-out and setting: under `O=C1c2ccccc2C(=O)N1Cc1cccc(I)c1` stands 40%.

These data come from ChEMBL document CHEMBL3727350, “Agents and methods for treating ischemic and other diseases” (2014).
